Reference: patent US12274775B2, “Fatty acid esters as anti-Malassezia agents” (SYMRISE AG, priority 2019, dated 2025)
Converted amounts (≈) assume the structure as drawn. Where two headings read alike, the source gives them in different places.

Tests used:
M. globosa CBS 7705 = assay: Ester cleavage by Malassezia cells, GC quantification; assay type: cell-based; details: 32° C.
Protocol: (§1) These two species are the most frequently detected ones on human scalp and skin and their hydrolytic/lipolytic activities on fatty acid esters has not yet been investigated before.
(§2) Malassezia strains were cultivated on selective agar for pathogenic fungi (Merck) and overlaid with a thin layer of cold-sterilized olive oil. After 3 to 5 days, fungal cells were harvested and resuspended in the respective test substance. Cell numbers were determined using a Neubauer counting chamber (cf. Table 12). Sterile Petri dishes (diameter: 3 cm) were prepared containing selective agar for pathogenic fungi, overlaid with 100 μl of the test suspensions and incubated at 32° C.
(§3) After defined incubation times (0, 3, 6, 12, 24, 48, and 72 h), test suspensions were removed from the agar surface by rinsing with 1 ml chloroform and stored under cool conditions in gastight tubes until analysis. Chloroform was removed by evaporation at 30° C. in the fume hood and the remaining liquid mixed with 1 ml isopropanol, transferred in Eppendorf tubes and centrifuged. The supernatant was transferred to new Eppendorf tubes.
(§4) In order to analytically quantify esters and free fatty acid resulting from cleavage by Malassezia enzymes, gas chromatography was used.
(§5) For quantification (range 0.1-10 wt %) a multilevel calibration method with internal standard (ISTD, docosane [C22]; 500 mg in MtBE) was used. An equal amount of corresponding acid, ester and possible side products [0.2-50 mg/10 mL] were mixed with ISTD, diluted to an appropriate concentration and 1 μL [split1:50] was directly used for GC-analysis with the following conditions: GC Agilent 6890 with a 20 m ZB-Wax column [0.20 mm×0.20 μm], injector temperature of 250° C., detector temperature of 275° C., flow gas of 1.3 mL/min hydrogen [constant]. For temperature profile 60° C. to 240° C. with a heating rate of 9° C./min was used.

M. restricta CBS 7877 = assay: as above; assay type: cell-based; details: 32° C.
Protocol: as §1, §2, §3, §4, §5

[1] = Ester cleavage assays without Malassezia cells; assay type: physicochemical; details: until the end of the experiment after 72 hours
Protocol: as §2, §3, §4
For quantification (range 0.1-10 wt %) a multilevel calibration method with internal standard (ISTD, docosane [C22]; 500 mg in MtBE) was used. […]

M. sympodialis = assay: Agar dilution test on mDixon agar, minimal inhibitory concentration (MIC); assay type: cell-based; details: 336 h, up to 14 days, read-out: Minimal inhibitory concentration (MIC)
Protocol: (§6) The fatty acid esters and their mixtures were tested for growth inhibition against Malassezia. The following reference strains were included:
(§7) Tests were performed on solid media using agar dilution tests. Stock solutions of test substances were prepared in mDixon-Agar (cf. Table 2). Lower test concentrations were obtained by diluting stock solutions with fresh agar.
(§8) Preparation of liquid agar was carried out in temperated water bath. Required amounts of test substances were weighed in 130 ml of Dixon Agar and mixed with fresh Dixon-Agar to reach desired concentrations of test substances. Agar solutions with test substances were then poured into 24 well-plates. The pH value in all assays was maintained at 5.5. Preparation of test substances was done on weight per volume base. All results are expressed in parts per million (1 ppm=0.0001%).
(§9) Briefly, Malassezia strains were cultivated on selective agar for pathogenic fungi (Merck) and overlaid with a thin layer of cold-sterilized olive oil. […] Incubation was carried out at 32° C. over a maximal duration of 14 days with regular inspection and documentation of growth status. Minimal inhibitory concentrations (MICs) were determined as the lowest concentrations of test compound without visible growth. Each experiment was repeated to confirm results.

M. furfur = assay: as above; assay type: cell-based; details: Malassezia furfur, agar dilution, pH 5.5, 32° C., up to 14 days, read-out: Minimal inhibitory concentration (MIC)
Protocol: as §6, §7, §8, §9

M. pachydermatis = assay: as above; assay type: cell-based; details: Malassezia pachydermatis, agar dilution, pH 5.5, 32° C., up to 14 days, read-out: Minimal inhibitory concentration (MIC)
Protocol: as §6, §7, §8, §9

M. restricta = assay: as above; assay type: cell-based; details: 336 h; M. restricta CBS 7877; agar dilution, pH 5.5, 32° C., up to 14 days; read-out: Minimal inhibitory concentration (MIC)
Protocol: as §6, §7, §8, §9

M. globosa = assay: as above; assay type: cell-based; details: Malassezia globosa, agar dilution, pH 5.5, 32° C., up to 14 days, read-out: Minimal inhibitory concentration (MIC)
Protocol: as §6, §7, §8, §9

[2] = M. globosa CBS 7705, after 6 hours
[3] = M. globosa CBS 7705, after 12 hours
[4] = M. restricta CBS 7877, after 6 hours
[5] = M. restricta CBS 7877, after 12 hours
[6] = pH 5.5, M. sympodialis ATCC 42132, pH 5.5, 32° C.
[7] = pH 5.5, M. sympodialis CBS 7222, pH 5.5, 32° C.
[8] = pH 5.5, M. sympodialis CBS 7979, pH 5.5, 32° C.
[9] = pH 5.5, M. sympodialis DSM 6171, pH 5.5, 32° C.
[10] = CBS1878, 336 h, M. furfur CBS 1878
[11] = CBS7019, 336 h, M. furfur CBS 7019
[12] = CBS1879, 336 h, M. pachydermatis CBS 1879
[13] = CBS7705, 336 h, M. globosa CBS 7705
[14] = CBS7966, 336 h, M. globosa CBS 7966

For CCCCCCCC(=O)OCCCO [3-Hydroxypropyl caprylate], the ester cleaved (M. globosa CBS 7705; [2]) was 75%, the ester cleaved (M. globosa CBS 7705; [3]) was 90% and the ester cleaved (M. restricta CBS 7877; [4]) was 21%. For the same compound, the ester cleaved (M. restricta CBS 7877; [5]) was 65%, the “free fatty acid detected in assays without Malassezia cells” value [1] was “no caprylic acid was detected” and the MIC (M. sympodialis; [6]) was 1000 µg/mL (≈ 4.94 mM). It also gave an MIC (M. sympodialis; [7]) of 1000 µg/mL (≈ 4.94 mM), an MIC (M. sympodialis; [8]) of 2000 µg/mL (≈ 9.89 mM) and an MIC (M. sympodialis; [9]) of 2000 µg/mL (≈ 9.89 mM). The MIC (M. furfur; [10]) was 2000 µg/mL (≈ 9.89 mM), the MIC (M. furfur; [11]) was 2000 µg/mL (≈ 9.89 mM) and the MIC (M. pachydermatis; 336 h, M. pachydermatis 1892) was 500 µg/mL (≈ 2.47 mM). For the same compound, the MIC (M. pachydermatis; [12]) was 330 µg/mL (≈ 1.63 mM), the MIC (M. restricta) was 1000 µg/mL (≈ 4.94 mM) and the MIC (M. globosa; 336 h, M. globosa PM1) was 500 µg/mL (≈ 2.47 mM). It also gave an MIC (M. globosa; [13]) of 1000 µg/mL (≈ 4.94 mM) and an MIC (M. globosa; [14]) of 1000 µg/mL (≈ 4.94 mM).

Compound C=CCCCCCCCCC(=O)OCCCO [3-Hydroxypropyl undecylenoate] has an ester cleaved (M. globosa CBS 7705; [2]) of 95%, an ester cleaved (M. globosa CBS 7705; [3]) of 99.5% and an ester cleaved (M. restricta CBS 7877; [4]) of 56%. For the same compound, the ester cleaved (M. restricta CBS 7877; [5]) was 96%, the “free fatty acid detected in assays without Malassezia cells” value [1] was “no undecylenic acid was detected” and the MIC (M. sympodialis; [6]) was 2000 µg/mL (≈ 8.25 mM). For the same compound, the MIC (M. sympodialis; [7]) was 4000 µg/mL (≈ 16.5 mM), the MIC (M. sympodialis; [8]) was 1000 µg/mL (≈ 4.13 mM) and the MIC (M. sympodialis; [9]) was 2000 µg/mL (≈ 8.25 mM). The MIC (M. furfur; [10]) was 8000 µg/mL (≈ 33 mM), the MIC (M. furfur; [11]) was 8000 µg/mL (≈ 33 mM) and the MIC (M. pachydermatis; 336 h, M. pachydermatis 1892) was 1000 µg/mL (≈ 4.13 mM). The MIC (M. pachydermatis; [12]) was 2000 µg/mL (≈ 8.25 mM), the MIC (M. restricta) was 1000 µg/mL (≈ 4.13 mM) and the MIC (M. globosa; 336 h, M. globosa PM1) was 2000 µg/mL (≈ 8.25 mM). For the same compound, the MIC (M. globosa; [13]) was 1000 µg/mL (≈ 4.13 mM) and the MIC (M. globosa; [14]) was 2000 µg/mL (≈ 8.25 mM).
